Laboratory results reported in article PMC11191402, “High-Affinity NIR-Fluorescent Inhibitors for Tumor Imaging via Carbonic Anhydrase IX” (Bioconjugate Chemistry, 2024).

Tests used:
human recombinant CAVA = biological target: T1, human recombinant CAVA (Homo sapiens, UniProt P35218); assay: Fluorescence-based thermal shift assay (FTSA), CAVA; type: binding; conditions: 37 °C, pH 7.0
T1 construct: Most isozymes were truncated, and only the catalytic domains of the proteins were produced; made in house; host or cells: bacterial expression system
T1 sequence (P35218 39-296 limits assumed): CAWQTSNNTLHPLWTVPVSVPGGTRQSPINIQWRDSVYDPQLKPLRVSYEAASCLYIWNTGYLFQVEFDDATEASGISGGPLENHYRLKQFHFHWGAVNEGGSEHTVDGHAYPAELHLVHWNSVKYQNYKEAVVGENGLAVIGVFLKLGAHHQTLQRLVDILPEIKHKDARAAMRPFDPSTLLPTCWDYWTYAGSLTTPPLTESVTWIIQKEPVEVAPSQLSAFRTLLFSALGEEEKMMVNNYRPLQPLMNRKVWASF
Experimental: (§1) The binding affinities of the four NIR-fluorescent compounds to 12 catalytically active recombinant CA isozymes were determined by the fluorescence-based thermal shift assay (FTSA), and the dissociation constants (Kd’s) at physiological pH (pH 7.0) and 37 °C are listed in Table 1.
(§2) All 12 catalytically active human CA isozymes were prepared recombinantly as previously described. Most isozymes were truncated, and only the catalytic domains of the proteins were produced.[9],[56] All isozymes were expressed in a bacterial expression system except that CAIX was expressed in mammalian cells. The proteins were chromatographically purified via immobilized metal affinity chromatography, ion-exchange, or p-aminomethylbenzenesulfonamide-sepharose affinity chromatography. Protein purity was confirmed by SDS-PAGE, and MW was confirmed by mass spectrometry with 1 Da precision, as predicted from theoretical protein sequence.
(§3) The fluorescence-based thermal shift assay (FTSA) was used to determine the binding affinity of compounds for all catalytically active CA isozymes. The assay is based on the thermal stabilization of proteins by bound ligands and distinguishes itself in its ability to determine extremely high affinity (picomolar Kd) of compound binding to CAIX. The experiments were performed with a QIAGEN Rotor-Gene Q instrument using either the blue channel (365 ± 20 nm excitation and 460 ± 15 nm emission detection) or the green channel (470 ± 10 nm excitation and 510 ± 5 nm detection). The protein solution, in the absence and presence of various compound concentrations ranging from 3 to 200 μM (2× dilutions), was heated from 25 to 99 °C (heating rate, 1 °C/min). The CA isozyme melting temperature Tm was determined by following the fluorescence of 8-anilino-1-naphthalenesulfonate (ANS) or Glomelt dye. The samples consisted of 5 μM protein (or 10 μM CAIV), different concentrations of the tested compound, and 50 μM ANS or 200× diluted Glomelt in 50 mM sodium phosphate buffer (at pH 7.0) containing 100 mM sodium chloride and 2–4% (v/v) dimethyl sulfoxide. To obtain the dissociation constant (at 37 °C), data analysis was performed, and the curves were fit using the Thermott Web server.[57]

human recombinant CAXIV = biological target: T2, human recombinant CAXIV (Homo sapiens, UniProt Q9ULX7); assay: Fluorescence-based thermal shift assay (FTSA), CAXIV; type: binding; conditions: 37 °C, pH 7.0
T2 construct: Most isozymes were truncated, and only the catalytic domains of the proteins were produced; made in house; host or cells: bacterial expression system
T2 sequence (Q9ULX7 20-278 limits assumed): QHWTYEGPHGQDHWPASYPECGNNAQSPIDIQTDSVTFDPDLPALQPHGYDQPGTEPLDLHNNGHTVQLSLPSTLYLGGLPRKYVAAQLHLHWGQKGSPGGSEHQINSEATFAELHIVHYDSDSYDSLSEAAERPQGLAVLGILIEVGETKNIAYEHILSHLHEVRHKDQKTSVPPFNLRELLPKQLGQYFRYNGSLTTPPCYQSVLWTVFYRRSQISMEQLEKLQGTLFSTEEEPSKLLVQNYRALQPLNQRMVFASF
Experimental: as §1, §2, §3

[1] = biological target: T3, cell-expressed CAIX (HeLa cells grown under hypoxia) (Homo sapiens, UniProt Q16790); assay: Competition assay with fluorescein-labeled GZ19-32 in live hypoxia-grown HeLa cells; type: binding; conditions: 10 nM GZ19-32, Pt 2 nM CAIX
T3 construct: The cells were grown under hypoxia and not transfected; endogenous in cells; host or cells: HeLa cells, 3 days under hypoxia, not transfected
Experimental: Hypoxia-grown HeLa cell culture expressed approximately 2 nM CAIX, which was quantified by fluorescein-labeled GZ19-32 added at a constant concentration of 10 nM throughout the assay. The four NIR-fluorescent compounds were dosed and competed with the GZ19-32 compound in a dose-dependent manner. At high concentrations, all four compounds fully outcompeted the fluorescein-bearing compound yielding nice competition curves (Figure 2B). Each curve was fit using the total protein CAIX (Pt) value of 2 nM, and the Kd of GZ19-32 was 200 pM. The dissociation constants for each NIR-fluorescent compound were 4 nM for GZ21-19, 6 nM for GZ22-1, 1.5 nM for GZ22-4, and 15 nM for AZ21-6. Thus, compound affinities were similar but not identical, despite having identical headgroups. […] The affinity of fluorescein-bearing GZ19-32 was the highest of all, around 200 pM.
For the competition assay, live cells were seeded in 12-well plates and incubated for 3 days under hypoxia. 200 μL of serially diluted NIR-fluorescent compound (12 2-fold dilution steps) in the PBS medium, starting from 5120 nM (5120, 2560, 1280,..., 0 nM), was mixed with 200 μL of 20 nM GZ19-32 solution (PBS). After the removal of growth medium, 200 μL obtained solutions were applied to the cells grown in 12-well culture plates. Plates were incubated in the CO2 incubator at normoxia for 20 min. The solution was removed, and cells were washed 3 times for 1–2 min with 400 μL of PBS. Then, 180 μL of TrypLe express enzyme (Thermo Fisher) was added to each well and incubated in the normoxia chamber for 10 min. Then, 20 μL of Defined Trypsin Inhibitor solution (Thermo Fisher) was added and cells were resuspended by pipetting. 150 μL of the suspension from each well was transferred to Thermo Scientific Nunc MicroWell 96-Well Optical-Bottom Plates for fluorescence and absorbance measurements. 485 nm excitation and 520 nm emission wavelengths were used to measure fluorescence on a Synergy HTX, BioTek plate reader. 650 nm wavelength was used for absorbance measurements.

[2] = biological target: T4, CAIX expressed on cell membranes of HeLa cells (Homo sapiens, UniProt Q16790); assay: Fluorescence microscopy staining of live HeLa cells; type: cell-based; conditions: for staining of HeLa cells (NIR fluorescence microscopy): 250 nM compound, pCMV-CAIX-transfected cells, normoxia
T4 construct: an open reading frame for the full-length CAIX protein (1–459 amino acids) without a tag; expressed in transfected cells; host or cells: HeLa cells transfected with pCMV-CAIX (TurboFect), normoxia
Source text: Live HeLa cell culture was used for visualization of the NIR-fluorescent compound binding to CAIX expressed on cell membranes (Figures 3 and S2). […] Hypoxic conditions were insufficient for CAIX-specific fluorescence detection (Figure S3). Transfected cells expressed 10-fold more CAIX protein than cells grown under hypoxia, as determined by dosing the fluorescein-containing compound GZ19-32. […] We should point out that microphotographs in Figures 3 and S2 were taken at different exposure times to ensure good visualization quality. Nevertheless, all four compounds were suitable for direct visualization of CAIX expressed on transfected cell membranes.
For visualization of CAIX in live cells, HeLa cells were seeded in 12-well plates, and the next day they were transfected with the pCMV-CAIX plasmid to induce CAIX expression under normoxia. The TurboFect Transfection Reagent (Thermo Fisher) was used for this purpose according to manufacturer’s directions. Cells were stained and visualized next day after transfection. Nontransfected cells, grown under normoxia, were used as a control. For the induction of CAIX expression without transfection, cells were cultured under hypoxia for 3 days.
For cell imaging, live cells were incubated with the recombinant monoclonal antibody to CAIX (M75) (Absolute Antibody, #Ab00414–1.1) in the CO2 incubator for 30 min. The antibody stock solution (1 mg/mL) was used at a dilution of 1:150 in FluoroBright (FB)(Thermo Fisher) medium. After washing (3 × 5 min with DMEM in RT, gentle rock), cells were incubated with secondary Alexa Fluor 488 goat antimouse antibodies (2 mg/mL, Thermo Fisher), at a dilution of 1:200 in FB, in a CO2 incubator for 30 min. After washing (3 × 5 min with DMEM in RT and 2 × 1 min with PBS), cells were incubated with NIR-fluorescent inhibitors ([…] in PBS) in a CO2 incubator for 5–8 min. After washing (2 min + 2 × 1 min with PBS), PBS was replaced by FB, and 15 μL of NucBlue Live Cell Stain ReadyProbes reagent (Thermo Fisher) was added per well. After 5 min, cells were observed and photographed using an automated fluorescence microscope EVOS FL Auto (Thermo Fisher).

Row | Structure (SMILES) | Kd (human recombinant CAVA) | Kd (human recombinant CAXIV) | Kd [1] | staining of HeLa cells (NIR fluorescence microscopy) [2] | fluorescence signal compared to the other compounds at identical exposure conditions ([2]; 250 nM, transfected HeLa, Cy7 filter)
1 | CC1(C)C(/C=C/C2=C(Oc3ccc(CCC(=O)NCCOCCOCCOCCOCCOCCOCCOCCOCCOCCOCCOCCNC(=O)CCS(=O)(=O)c4c(F)c(F)c(S(N)(=O)=O)c(F)c4NC4CCCCCCC4)cc3)C(=C/C=C3\N(CCCCS(=O)(=O)[O-])c4ccccc4C3(C)C)/CCC2)=[N+](CCCCS(=O)(=O)[O-])c2ccccc21.[Na+] [GZ22-4, Sodium 4-((Z)-2-((E)-2-(2-(4-(43-((2-(Cyclooctylamino)-3,5,6-trifluoro-4-sulfamoylphenyl)sulfonyl)-3,41-dioxo-7,10,13,16,19,22,25,28,31,34,37-undecaoxa-4,40-diazatritetracontyl)phenoxy)-3-((E)-2-(3,3-dimethyl-1-(4-sulfonatobutyl)-3H-indol-1-ium-2-yl)vinyl)cyclohex-2-en-1-ylidene)ethylidene)-3,3-dimethylindolin-1-yl)butane-1-sulfonate] | 2 µM | 0.09 µM | 0.0015 µM | stained the membranes of pCMV-CAIX-transfected cells | best fluorescence signal
2 | CC1(C)C(/C=C/C2=C(NCCCOCCOCCOCCCNC(=O)CCC(=O)NCCS(=O)(=O)c3c(F)c(F)c(S(N)(=O)=O)c(F)c3NC3CCCCCCC3)C(=C/C=C3\N(CCCCS(=O)(=O)[O-])c4ccccc4C3(C)C)/CCC2)=[N+](CCCCS(=O)(=O)[O-])c2ccccc21.[Na+] [AZ21-6, Sodium 4-((Z)-2-((E)-2-(2-((1-((2-(Cyclooctylamino)-3,5,6-trifluoro-4-sulfamoylphenyl)sulfonyl)-4,7-dioxo-12,15,18-trioxa-3,8-diazahenicosan-21-yl)amino)-3-((E)-2-(3,3-dimethyl-1-(4-sulfonatobutyl)-3H-indol-1-ium-2-yl)vinyl)cyclohex-2-en-1-ylidene)ethylidene)-3,3-dimethylindolin-1-yl)butane-1-sulfonate] | 10 µM | 0.1 µM | 0.015 µM | stained the membranes of pCMV-CAIX-transfected cells | –
3 | CC1(C)C(/C=C/C2=C(Oc3cccc(CC(=O)NCCCOCCOCCOCCCNC(=O)CCS(=O)(=O)c4c(F)c(F)c(S(N)(=O)=O)c(F)c4NC4CCCCCCC4)c3)C(=C/C=C3\N(CCCCS(=O)(=O)[O-])c4ccccc4C3(C)C)/CCC2)=[N+](CCCCS(=O)(=O)[O-])c2ccccc21.[Na+] [GZ21-19, Sodium 4-((Z)-2-((E)-2-(2-(3-(20-((2-(Cyclooctylamino)-3,5,6-trifluoro-4-sulfamoylphenyl)sulfonyl)-2,18-dioxo-7,10,13-trioxa-3,17-diazaicosyl)phenoxy)-3-((E)-2-(3,3-dimethyl-1-(4-sulfonatobutyl)-3H-indol-1-ium-2-yl)vinyl)cyclohex-2-en-1-ylidene)ethylidene)-3,3-dimethylindolin-1-yl)butane-1-sulfonate] | 2 µM | 0.1 µM | 0.004 µM | stained the membranes of pCMV-CAIX-transfected cells | –
4 | CC1(C)C(/C=C/C2=C(Oc3ccc(CCC(=O)NCCCOCCOCCOCCCNC(=O)CCS(=O)(=O)c4c(F)c(F)c(S(N)(=O)=O)c(F)c4NC4CCCCCCC4)cc3)C(=C/C=C3\N(CCCCS(=O)(=O)[O-])c4ccccc4C3(C)C)/CCC2)=[N+](CCCCS(=O)(=O)[O-])c2ccccc21.[Na+] [GZ22-1, Sodium 4-((Z)-2-((E)-2-(2-(4-(21-((2-(Cyclooctylamino)-3,5,6-trifluoro-4-sulfamoylphenyl)sulfonyl)-3,19-dioxo-8,11,14-trioxa-4,18-diazahenicosyl)phenoxy)-3-((E)-2-(3,3-dimethyl-1-(4-sulfonatobutyl)-3H-indol-1-ium-2-yl)vinyl)cyclohex-2-en-1-ylidene)ethylidene)-3,3-dimethylindolin-1-yl)butane-1-sulfonate] | 1 µM | 0.1 µM | 0.006 µM | stained the membranes of pCMV-CAIX-transfected cells | –
